In paper PMC10709440, “High-throughput ligand profile characterization in novel cell lines expressing seven heterologous insect olfactory receptors for the detection of volatile plant biomarkers” (Scientific Reports, 2023):
Read-outs that look alike come from different tables or passages of the source.

Tests used:
[1] = molecular target: T1, Drosophila OR10a (Drosophila melanogaster, UniProt Q9VYZ1); assay: Calcium ion fluorescence (GCaMP6) assay, OR10a stable HEK293 cell line; assay type: cell-based
T1 construct: expressed in transfected cells
T1 sequence (Q9VYZ1 1-406): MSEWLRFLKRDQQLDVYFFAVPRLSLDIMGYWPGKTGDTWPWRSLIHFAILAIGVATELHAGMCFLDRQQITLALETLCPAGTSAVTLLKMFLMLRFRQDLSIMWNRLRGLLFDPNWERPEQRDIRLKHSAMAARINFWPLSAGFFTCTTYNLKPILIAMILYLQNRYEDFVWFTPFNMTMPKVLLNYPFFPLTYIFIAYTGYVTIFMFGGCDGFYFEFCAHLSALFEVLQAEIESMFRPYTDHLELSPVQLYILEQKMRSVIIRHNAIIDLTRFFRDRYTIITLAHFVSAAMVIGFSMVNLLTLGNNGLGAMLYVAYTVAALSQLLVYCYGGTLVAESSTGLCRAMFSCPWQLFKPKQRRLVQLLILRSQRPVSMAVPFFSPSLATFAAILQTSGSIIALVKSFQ
T1 sequence (Q9VNB5 1-486 partner): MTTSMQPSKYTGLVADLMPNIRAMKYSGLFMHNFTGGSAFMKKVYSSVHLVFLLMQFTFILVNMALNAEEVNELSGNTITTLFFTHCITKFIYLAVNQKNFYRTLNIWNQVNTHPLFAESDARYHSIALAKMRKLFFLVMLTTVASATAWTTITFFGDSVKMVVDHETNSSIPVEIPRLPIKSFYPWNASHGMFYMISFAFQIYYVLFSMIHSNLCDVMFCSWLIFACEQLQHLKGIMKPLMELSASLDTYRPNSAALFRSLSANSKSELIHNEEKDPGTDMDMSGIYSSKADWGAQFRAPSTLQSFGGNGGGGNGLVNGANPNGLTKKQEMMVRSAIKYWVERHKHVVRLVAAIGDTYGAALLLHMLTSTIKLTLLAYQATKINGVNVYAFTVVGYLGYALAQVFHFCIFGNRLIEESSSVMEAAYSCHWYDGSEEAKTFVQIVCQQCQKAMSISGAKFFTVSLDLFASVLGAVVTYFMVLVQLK
Procedure, shortened: (§1)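 Responses are VUAA1-normalized ΔF: each VOC-evoked calcium signal, (FMAX−F0)/F0 over 30 s after injection, divided by the same line's mean 50 µM VUAA1 response. Cells were doxycycline-induced HEK293 with GCaMP6 and the cognate Drosophila OR, in HEPES buffer pH 7.3; ligands tested 0.01–100 μM.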

[2] = molecular target: T2, Drosophila OR71a (Drosophila melanogaster, UniProt Q9VUK5); assay: Calcium ion fluorescence (GCaMP6) assay, OR71a stable HEK293 cell line; assay type: cell-based; details: for Average response: VUAA1-normalized response, mean of biological replicates
T2 construct: expressed in transfected cells
T2 sequence (Q9VUK5 1-378): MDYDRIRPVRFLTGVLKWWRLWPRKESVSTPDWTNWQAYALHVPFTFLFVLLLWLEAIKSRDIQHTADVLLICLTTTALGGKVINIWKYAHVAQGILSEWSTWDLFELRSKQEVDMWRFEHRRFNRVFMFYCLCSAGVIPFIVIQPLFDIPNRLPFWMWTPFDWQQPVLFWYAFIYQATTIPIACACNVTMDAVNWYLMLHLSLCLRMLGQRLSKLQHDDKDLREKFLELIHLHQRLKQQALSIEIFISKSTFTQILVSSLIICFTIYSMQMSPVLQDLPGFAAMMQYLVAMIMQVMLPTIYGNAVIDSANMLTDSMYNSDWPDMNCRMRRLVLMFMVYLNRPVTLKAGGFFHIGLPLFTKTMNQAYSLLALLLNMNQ
T2 sequence (Q9VNB5 1-486 partner): T1 sequence (Q9VNB5 1-486 partner)
Procedure, shortened: as §1

[3] = HEK293, 1 μM VOC, 50 μM VUAA1 = 1, responses not exceeding 0.05 considered 0, read-out: OR10a Average response (VUAA1-normalized)
[4] = HEK293, 10 μM VOC, 50 μM VUAA1 = 1, responses not exceeding 0.05 considered 0, read-out: OR10a Average response (VUAA1-normalized)
[5] = HEK293, 100 μM VOC, 50 μM VUAA1 = 1, responses not exceeding 0.05 considered 0, read-out: OR10a Average response (VUAA1-normalized)
[6] = ligand concentration 1 (unit not given), threshold 0.05, below shown as 0
[7] = ligand concentration 10 (unit not given), threshold 0.05, below shown as 0
[8] = ligand concentration 100 (unit not given), threshold 0.05, below shown as 0
[9] = HEK293, read-out: OR71a response (VUAA1-normalized response)

## CCCOC(C)=O [propyl acetate]
[1]; [3]
  activation at 1 µM: 0%
[1]; [4]
  activation at 10 µM: 9%
[1]; [5]
  activation at 100 µM: 0%
[1]; OR10a cell line, VOC concentration 1 μM
  OR10a response (VUAA1-normalized) at 1 μM: 0.00
[1]; OR10a cell line, VOC concentration 10 μM
  OR10a response (VUAA1-normalized) at 10 μM: 0.09
[1]; OR10a cell line, VOC concentration 100 μM
  OR10a response (VUAA1-normalized) at 100 μM: 0.00
[1]; [6]
  DF norm AVERAGE OR10a: 0
[1]; [7]
  DF norm AVERAGE OR10a: 0.08914
[1]; [8]
  DF norm AVERAGE OR10a: 0
[2]; OR71a cell line, VOC concentration 1 μM
  OR71a response (VUAA1-normalized) at 1 μM: 0.00
[2]; OR71a cell line, VOC concentration 10 μM
  OR71a response (VUAA1-normalized) at 10 μM: 0.00
[2]; OR71a cell line, VOC concentration 100 μM
  OR71a response (VUAA1-normalized) at 100 μM: 0.00
[2]; OR71a cell line, cc. 1 µM
  Average response: 0.0434
[2]; OR71a cell line, cc. 10 µM
  Average response: 0.025
[2]; OR71a cell line, cc. 100 µM
  Average response: 0.00
[2]; [6]
  DF norm AVERAGE OR71a: 0
[2]; [7]
  DF norm AVERAGE OR71a: 0
[2]; [8]
  DF norm AVERAGE OR71a: 0

## CC(=O)c1ccccc1 [acetophenone]
[1]; [3]
  activation at 1 µM: 4%
[1]; [4]
  activation at 10 µM: 0%
[1]; [5]
  activation at 100 µM: 24%
[1]; HEK293, read-out: OR10a response (VUAA1-normalized response), VOC concentration 1 μM
  activation at 1 µM: 0%
[1]; HEK293, read-out: OR10a response (VUAA1-normalized response), VOC concentration 10 μM
  activation at 10 µM: 0%
[1]; HEK293, read-out: OR10a response (VUAA1-normalized response), VOC concentration 100 μM
  activation at 100 µM: 24%
[1]; [6]
  DF norm AVERAGE OR10a: 0
[1]; [7]
  DF norm AVERAGE OR10a: 0
[1]; [8]
  DF norm AVERAGE OR10a: 0.2367
[2]; [9]
  activation at 1 µM: 0%
  activation at 10 µM: 0%
  activation at 100 µM: 0%
[2]; OR71a cell line, cc. 1 µM
  Average response: 0.00
[2]; OR71a cell line, cc. 10 µM
  Average response: 0.00
[2]; OR71a cell line, cc. 100 µM
  Average response: 0.00
[2]; [6]
  DF norm AVERAGE OR71a: 0
[2]; [7]
  DF norm AVERAGE OR71a: 0
[2]; [8]
  DF norm AVERAGE OR71a: 0

## CC/C=C\CCO [Z3-hexenol]
[1]; 1 μM VOC, 50 μM VUAA1 = 1, responses not exceeding 0.05 considered 0
  OR10a Average response (VUAA1-normalized): 0.17
[1]; 10 μM VOC, 50 μM VUAA1 = 1, responses not exceeding 0.05 considered 0
  OR10a Average response (VUAA1-normalized): 0.19
[1]; 100 μM VOC, 50 μM VUAA1 = 1, responses not exceeding 0.05 considered 0
  OR10a Average response (VUAA1-normalized): 0.10
[1]; ligand concentration 1 (unit not given), […]
  DF norm AVERAGE OR10a: 0.1736
[1]; ligand concentration 10 (unit not given), […]
  DF norm AVERAGE OR10a: 0.1946
[1]; ligand concentration 100 (unit not given), […]
  DF norm AVERAGE OR10a: 0.1046
[2]; OR71a cell line, cc. 1 µM
  Average response: 0.00
[2]; OR71a cell line, cc. 10 µM
  Average response: 0.0174
[2]; OR71a cell line, cc. 100 µM
  Average response: 0.00
[2]; ligand concentration 1 (unit not given), 0.05 threshold, values below shown as 0
  DF norm AVERAGE OR71a: 0
[2]; ligand concentration 10 (unit not given), 0.05 threshold, values below shown as 0
  DF norm AVERAGE OR71a: 0
[2]; ligand concentration 100 (unit not given), 0.05 threshold, values below shown as 0
  DF norm AVERAGE OR71a: 0
